In patent US20080188449A1, “Treatment of Conditions Caused By Calcium Abnormalities” (priority 2004, published 2008):

What was measured:
HeLa cells [1] = experiment: [^3H]-triptolide competition binding in HeLa cells; conditions: for competition for [^3H]-triptolide binding: 1 μM competitor
Description: To gain insight into triptolide's mechanism of action Applicants sought to determine its specific binding activity utilizing a system employing [^3H]-triptolide. In addition to competition with 1 μM or 10 μM unlabeled triptolide, Applicants also measured the binding affinities of triptolide analogs (FIG. 1A). These analogs have been previously described and differ structurally from triptolide in the hydrolysis of the 12,13 epoxide (2), and formation of the ketone at the C-14 hydroxyl (3) (FIG. 1A). […] The effective interaction of these analogs with a presumed triptolide binding entity led us to their use in subsequent experiments addressing the mode of triptolide's biological functions.
(§1) To address first the nature of triptolide binding within the cell, Applicants determined this interaction was reversible as [^3H]-triptolide labeling was out competed by subsequent addition of excess unlabeled triptolide (FIG. 2A). […] Although 25% of the total cellular counts (i.e., representing bound triptolide) were found in the cytosolic fraction, it is uncertain whether this is specific binding or simply that free triptolide had dissociated from its binding protein due to experimental manipulation during fractionation. Since the data thus far had only shown binding within whole cells, Applicants next determined if this triptolide binding protein could be further characterized and/or enriched by its association with chromatographic reagents. HeLa cells were once again labeled with [^3H]-triptolide and total cell lysates were then passed over the anion exchange resin DEAE. Batch elutions with increasing NaCl concentrations were used to disassociate interactions of variable charge. […] Importantly, Applicants also observed that [^3H]-triptolide would only bind to intact cells in culture but would not bind to any component of a total cellular lysate as assessed by interaction with the DEAE resin. Negative results for a triptolide binding interaction were also observed with DNA-cellulose and the cation exchange resin SPFF (sulphopropyl).
Labeling studies were performed by the addition of approximately 30 nM [^3H]-triptolide directly into the culture media for one hour at 37° C. For cold competition studies, 1 μM triptolide was incubated with the cells for one hour before or after the addition of [^3H]-triptolide. Triptolide analog studies followed a similar protocol where concentrations used for competition were either 1 or 10 μM added before [^3H]-triptolide. Medium was removed and cells were washed 3× in cold PBS. Total cell lysates were prepared (150 mM NaCl, 50 mM Tris-HCl pH 7.4, 1 mM EDTA, 1% Triton X-100, and Complete protease inhibitors (Roche)) and protein was quantitated before measuring the [^3H]-triptolide binding activity via liquid scintillation.

HeLa cells [2] = experiment: HeLa cell viability by trypan blue dye exclusion; type: cell-based
Description: Since extracellular calcium concentration can influence triptolide binding Applicants sought to determine if the presence of calcium influences the rate of triptolide-mediated apoptosis. To first establish the growth rate of HeLa in media±calcium, cell counts were performed over a 72 hour time course. Although calcium-free media caused cells to detach more easily, the overall growth rates were similar where cell doubling occurred every 24 hours on average (FIG. 3B). For triptolide experiments, cells were initially equilibrated in medium±calcium for 16 hours before the addition of 100 nM triptolide. Cell death was assessed by trypan blue dye exclusion at 24, 48, and 72 hours post drug treatment. In the presence of calcium-containing medium, triptolide induced at least 50% cell death by 24 hours with this trend continuing through later time points (FIG. 3C).
Applicants' results have implicated reversible binding of triptolide to a potential binding protein or complex that can be regulated by calcium. To understand if triptolide function is further separable between cell death and NFκB inhibition, Applicants examined the effect of concentration on these two endpoints. HeLa cells were cultured in the presence of 0, 10, 25, 50, or 100 nM of triptolide and separately assessed for cell death or the ability to suppress NFκB transactivation promoted by TNF-α. Following 24-48 hours of culture, viable cells were recovered and counted. Following 24 hours, triptolide concentrations from 25-100 nM caused greater than 50% of the cells to undergo cell death as assessed by detachment, clumping and the failure to exclude trypan blue dye. […] This is consistent with previous studies showing that low doses of triptolide cause cell cycle arrest rather than apoptosis (Kiviharju, et al., 2002, Clin Cancer Res 8, 2666-2674).
(§2) Based upon Applicants' studies examining the concentration dependent effect of triptolide on the two measured biological endpoints, cell death and transcriptional repression, Applicants wanted to determine how modulating triptolide's structure may also discriminate between the two pathways. For cell viability assays, HeLa cells were incubated with 0, 0.1, 1, or 10 μM of each analog or triptolide for 24 hours and then counted using trypan blue dye exclusion. […] NFκB transcriptional inhibition was measured using the κB-luciferase assay as previously described following 5 hours of incubation with each analog (0-10 μM) and TNF-α addition.
HeLa cells were incubated in DMEM or SMEM (Gibco) media+10% FBS and maintained at 37° C. in 5% CO2 for all experiments. HeLa cell viability was assessed by trypan blue dye exclusion, as well as by morphological examination (non-viable cells were rounded and detached from culture plate).

NFκB transactivation = experiment: κB-luciferase reporter assay (TNF-α induced); type: cell-based; conditions: 5 hours
Description: Having established that triptolide induced cell death is dependent upon free calcium concentration, Applicants next determined if this was also a requirement for the inhibition of NFκB transcription. HeLa cells were transiently transfected with the κB-luciferase reporter construct for 8 hours before being washed and then cultured in the presence or absence of calcium containing medium for 16 hours. Triptolide (100 nM) was pre-incubated with cells for 1 hour before addition of 15 ng/ml of TNF-α for 4 hours.
As an additional experiment, transcriptional activity was also assessed by site-directed calcium buffering. HeLa cells were co-transfected with the κB-luciferase plasmid as well as one of the following constructs: GFP empty vector, NES-PV-GFP, or NLS-PV-GFP and proper GFP localization was confirmed. Cells were grown in the presence of calcium for 24 hours before the addition of 100 nM triptolide and 15 ng/ml TNF-α.
NFκB transactivation was examined using the κb-luciferase reporter construct. HeLa cells were transiently transfected and pre-treated with 0-100 nM triptolide for one hour prior to TNF-α addition. Cells were assessed for NFκB driven luciferase expression after an additional five hours of incubation, at which time TNF-α had induced transcriptional activity by approximately 15-fold in control cells. […] The results thus far support a divergence of triptolide-mediated functions: the pathway regulating growth arrest/death is more sensitive to triptolide and calcium than the mechanism leading to transcriptional repression of NFκB.
as §2
A triple κB promoter-Luciferase reporter construct was a gift of Sankar Ghosh (Yale University). HeLa cells were plated at a density of 2×10^5 in 12 well plates and transfected with 100 ng of the κB-Luciferase plasmid plus Lipofectamine 2000 (Invitrogen) for 24 hours before the addition of 100 nM triptolide for one hour and 15 ng/ml of recombinant (human) TNF-α (Roche) for an additional five hours. The transfection efficiency of HeLa was determined to be 80-90%, and all samples were normalized to protein concentration. Luciferase assays were performed using the Firefly luciferase kit as per manufacturer's protocol (Promega) and results obtained on the Wallac Victor2 1420 Multilabel Counter (Perkin Elmer).

HeLa cells [3] = experiment: [^3H]-triptolide saturation (specific) binding assay; conditions: saturation plot
Description: Based upon the data above, Applicants next sought to determine if triptolide binding was saturable and if more than one protein (or binding site) was being targeted. Determination of the [^3H]-triptolide binding affinity (KD) and the binding capacity per cell (Bmax) were calculated using a saturation plot. HeLa cells were cultured to 90% confluency and subsequently treated with 0-100 nM of [^3H]-triptolide for one hour. Non-specific binding was defined using 2 μM cold triptolide as competitor. Bmax was calculated to be 99±19 fmol triptolide bound/10^5 cells of triptolide binding sites.
Saturation binding assays were accomplished in HeLa cells adhered on 6-well plates in DMEM+10% FBS. All samples were at least 90% confluent at time of addition of triptolide. Non-specific binding of [^3H]-triptolide was assessed by the pre-incubation of 2 μM (non-labeled) triptolide for one hour. Following cold competition (or DMSO) 5, 10, 20, 50, or 100 nM of [^3H]-triptolide was added into the cultures for an additional one hour, and then cells were lysed and counted for binding activity.

HeLa cells [4] = experiment: Cellular fractionation of [^3H]-triptolide labeled HeLa cells; type: binding
Text: as §1, with “DEAE.” for “DEAE. Batch elutions with increasing NaCl concentrations were used to disassociate interactions of variable charge.”, “Negative results for a triptolide binding interaction were also observed with DNA-cellulose and the cation exchange resin SPFF (sulphopropyl).” left out
For cellular fractionation studies, cells were allowed to swell on ice and lysed by passage through a syringe in a hypotonic lysis buffer (10 mM Tris-HCl+complete protease inhibitors). […] Gel slices were measured out in equal increments and the molecular weight range of each was calculated. […]

HeLa cells [5] = experiment: [^3H]-triptolide binding with or without extracellular calcium
Text: To understand further the nature of triptolide's interaction within the cell, Applicants altered cell culture conditions to examine if [^3H]-triptolide binding would be affected. […] Additionally, it has been established that aberrant calcium signaling can result in cell death (Rizzuto, et al., 2003, Oncogene 22, 8619-8627; Orrenius, et al., 2003, Nat Rev Mol Cell Biol 4, 552-565). Due to triptolide's own link with NFκB and NF-AT and its propensity to induce cell death, Applicants examined if triptolide binding could be modulated by free calcium levels. Adherent HeLa cells were cultured in the presence or absence of calcium containing medium for 16 hours before [^3H]-triptolide addition. […] It is also noteworthy that an increase in cell density (not cell number) also increases triptolide binding regardless of calcium levels. Additionally, specific calcium chelation by 10 mM EGTA for one hour in calcium containing medium increased binding by nearly 2 fold.
Labeling studies were performed by the addition of approximately 30 nM [^3H]-triptolide directly into the culture media for one hour at 37° C. […] Total cell lysates were prepared (150 mM NaCl, 50 mM Tris-HCl pH 7.4, 1 mM EDTA, 1% Triton X-100, and Complete protease inhibitors (Roche)) and protein was quantitated before measuring the [^3H]-triptolide binding activity via liquid scintillation.

SMILES | competition for [^3H]-triptolide binding (HeLa cells [1]; HeLa cells) | displacement of [^3H]-triptolide binding (HeLa cells [1]; 1 or 10 μM competitor one hour before [^3H]-triptolide, HeLa cells) | effect on cells (HeLa cells [2]; 25 nM) | profile of cell death (HeLa cells [2]; 0.1-10 μM, 24 hours) | profile of transcriptional repression (NFκB transactivation; 0.1-10 μM) | nature of binding interaction (HeLa cells [1]; excess unlabeled triptolide added after [^3H]-triptolide) | binding capacity per cell (Bmax) (HeLa cells [3]) | total cellular counts found in the cytosolic fraction (HeLa cells [4]; S-100) | cellular fraction bound (HeLa cells [4]; S-100 / P-100 fractionation) | increase of binding (HeLa cells [5]; 10 mM EGTA for one hour in calcium containing medium) | increase of [^3H]-triptolide binding (HeLa cells [5]; absence of extracellular calcium for 16 hours) | cell viability (HeLa cells [2]; 0.1 μM, 24 hours) | cell growth (HeLa cells [2]; 0.1 μM, out to 72 hours) | cell death (HeLa cells [2]; 1 μM, 24 hours) | effect on NFκB transcriptional activity (NFκB transactivation; 1 μM)
CC(C)[C@]12O[C@H]1[C@@H]1O[C@@]13[C@@]1(C)CCC4=C(COC4=O)[C@@H]1C[C@@H]1O[C@@]13C2=O [analog (3), Triptonide] | higher competitive ability than triptolide itself | near complete | only a growth suppressive effect | mimicked triptolide with no significant difference | mimicked triptolide with no significant difference |  |  |  |  |  |  |  |  |  | 
CC(C)[C@]12O[C@H]1[C@@H]1O[C@]13[C@]1(O[C@H]1C[C@H]1C4=C(CC[C@@]13C)C(=O)OC4)[C@@H]2O [[^3H]-triptolide] |  |  |  |  |  | reversible | 99±19 fmol triptolide bound/10^5 cells | 25% | predominantly to the membrane fraction (P-100) | ~2 fold | 2-4 fold |  |  |  | 
CC(C)C1(O)C(O)C2OC23C2(C)CCC4=C(COC4=O)C2CC2OC23C1O (stereo not shown) [analog (2), Triol-Triptolide] | efficiently competes |  |  |  |  |  |  |  |  |  |  | not different from the untreated control | overall growth suppressive effect | greater than 50% | no effect
